We go through 24 compounds from patent US9163012B2, “Carbamate and urea inhibitors of 11β-hydroxysteroid dehydrogenase 1” (Vitae Pharmaceuticals, Inc., priority 2009, dated 2015).

This experiment addresses 11β-HSD1 (Homo sapiens (Human), UniProt P28845). Nature of the experiment: Biological Test Example 1: inhibition of a microsomal preparation of 11β-HSD1 (SPA). Conditions: for inhibition at 0.1 µM: read-out: Average % inhibition at 100 nM, Biological Test Example 1. Format: biochemical. On the procedure: All reactions were carried out at rt in 96 well clear flexible PET Microbeta plates (PerkinElmer). […] After a 10 minute pre-incubation, 50 μL of enzyme solution containing microsomes isolated from CHO cells overexpressing human 11-HSD1 (10-20 μg/ml of total protein) was added, and the plates were incubated for 90 minutes at rt. The reaction was stopped by adding 50 μl of the SPA beads suspension containing 10 μM […], 5 mg/ml protein A coated YSi SPA beads (GE Healthcare) and 3.3 μg/ml of anti-cortisol antibody (East Coast Biologics) in Superblock buffer (Bio-Rad). The plates were shaken for 120 minutes at rt, and the SPA signal corresponding to [^3H]cortisol was measured on a Microbeta plate reader.

[1] abbreviates: Biological Test Example 1, 100 nM compound.
Setting [2] is: Biological Test Example 1, microsomes from CHO cells overexpressing human 11β-HSD1, read-out: IC50 Range.
[3] abbreviates: Biological Test Example 1, read-out: IC50.

The structures appear in SMILES notation. Where two headings read alike, the source gives them in different places. A value given as a limit tells only on which side of the number the result lay.

Chain of 11β-HSD1 (P28845 whole entry): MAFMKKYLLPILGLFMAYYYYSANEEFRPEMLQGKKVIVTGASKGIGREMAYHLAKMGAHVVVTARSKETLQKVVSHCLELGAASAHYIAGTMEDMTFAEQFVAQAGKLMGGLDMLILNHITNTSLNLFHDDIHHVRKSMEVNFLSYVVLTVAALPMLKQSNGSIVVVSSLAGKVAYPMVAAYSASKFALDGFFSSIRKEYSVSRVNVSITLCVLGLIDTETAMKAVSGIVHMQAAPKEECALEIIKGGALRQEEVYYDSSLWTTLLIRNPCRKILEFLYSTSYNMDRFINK

Turning to `Cc1cnc(C2CCN(C(=O)OC3C4CC5CC3CC(C(N)=O)(C5)C4)C2)nc1` (single isomer, unassigned) [EXAMPLE 39 Isomer 1, 1-carbamoyl-4-adamantyl 3-(5-methylpyrimidin-2-yl)pyrrolidine-1-carboxylate], the “Average % inhibition at 100 nM” value under setting [1] is listed as 59.7%. The IC50 was < 100 nM under setting [2] and 2.99 nM under setting [3].

On to `Cc1cc(C)nc(C2CCN(C(=O)OC3C4CC5CC3CC(C(N)=O)(C5)C4)C2)n1` (single isomer, unassigned) [EXAMPLE 43 Isomer 1, trans-1-carbamoyl-4-adamantyl 3-(4,6-dimethylpyrimidin-2-yl)pyrrolidine-1-carboxylate], for which the “Average % inhibition at 100 nM” value under setting [1] stood at 86.5%. For the same compound, the IC50 reads like this: under setting [2], < 100 nM; under setting [3], 5.72 nM.

With `Cc1nc2cc(F)ccc2n1C1CCN(C(=O)OC2C3CC4CC2CC(C(N)=O)(C4)C3)C1` (single isomer, unassigned; isomer 1) [EXAMPLE 74 Isomer 1], the “Average % inhibition at 100 nM” value stood at 91.9%. Further, the half-inhibitory concentration (IC50) (read-out: IC50) was found to be 2.22 nM. In addition, the IC50 (read-out: IC50 Range) was < 100 nM.

With `NC(=O)[C@]12CC3CC(C1)[C@@H](OC(=O)N1CC[C@H](n4c(=O)[nH]c5cccc(Cl)c54)C1)C(C3)C2` [EXAMPLE 67, (S)-trans-1-carbamoyl-4-adamantyl 3-(7-chloro-2-oxo-2,3-dihydro-1H-benzo[d]imidazol-1-yl)pyrrolidine-1-carboxylate], the IC50 is < 100 nM under setting [2] and 0.68 nM under setting [3]. For the same compound, the inhibition at 0.1 µM (100 nM compound) turned out to be 97.7%.

Consider `Cc1nc2cc(F)ccc2n1C1CCN(C(=O)OC2C3CC4CC2CC(C(N)=O)(C4)C3)C1` (single isomer, unassigned; isomer 2) [EXAMPLE 74 Isomer 2], for which the “Average % inhibition at 100 nM” value was determined as 83.2%. For the same compound, where the note is “read-out: IC50”, the IC50 amounted to 16.6 nM. For the same compound, where the note is “read-out: IC50 Range”, the IC50 was < 100 nM.

Regarding `NC(=O)[C@]12CC3CC(C1)[C@@H](OC(=O)N1CCC(c4ncc(Cl)cn4)C1)C(C3)C2` (single isomer, unassigned) [EXAMPLE 26, trans-(1-carbamoyl-4-adamantyl) 3-(5-chloropyrimidin-2-yl)pyrrolidine-1-carboxylate], under setting [1], the “Average % inhibition at 100 nM” value was found to be 94.5%. Also, the IC50 runs as follows: under setting [2], < 100 nM; under setting [3], 1.12 nM.

As for `N#Cc1ccc2[nH]c(=O)n([C@@H]3CCN(C(=O)O[C@H]4C5CC6CC4C[C@](C(N)=O)(C6)C5)C3)c2c1` [EXAMPLE 65, (R)-trans-1-carbamoyl-4-adamantyl 3-(6-cyano-2-oxo-2,3-dihydro-1H-benzo[d]imidazol-1-yl)pyrrolidine-1-carboxylate], the IC50 by setting is: under setting [2], < 100 nM; under setting [3], 33.1 nM. Where the note is “100 nM compound”, the inhibition at 0.1 µM came to 69%.

Regarding `NC(=O)[C@]12CC3CC(C1)[C@@H](OC(=O)N1CC[C@H](n4c(=O)[nH]c5cc(F)ccc54)C1)C(C3)C2` [EXAMPLE 63, (S)-trans-1-carbamoyl-4-adamantyl 3-(5-fluoro-2-oxo-2,3-dihydro-1H-benzo[d]imidazol-1-yl)pyrrolidine-1-carboxylate], the IC50 by setting is: under setting [2], < 100 nM; under setting [3], 1.01 nM. Also, the inhibition at 0.1 µM (100 nM compound) was 91.2%.

In the case of `NC(=O)C12CC3CC(C1)C(OC(=O)N1CCC(c4nccc(C(F)(F)F)n4)C1)C(C3)C2` (single isomer, unassigned) [EXAMPLE 48 Isomer 2, cis-1-carbamoyl-4-adamantyl 3-(4-(trifluoromethyl)pyrimidin-2-yl)pyrrolidine-1-carboxylate], the “Average % inhibition at 100 nM” value under setting [1] worked out at 16.1%.

Regarding `NC(=O)[C@]12CC3CC(C1)[C@@H](OC(=O)N1CCC[C@@H]1c1nc(-c4cc[nH]c(=O)c4)cs1)C(C3)C2` [EXAMPLE 54, (R)-trans-1-carbamoyl-4-adamantyl 2-(4-(2-oxo-1,2-dihydropyridin-4-yl)thiazol-2-yl)pyrrolidine-1-carboxylate], the IC50 by setting is: under setting [2], < 100 nM; under setting [3], 2.67 nM. Where the note is “100 nM compound”, the inhibition at 0.1 µM is 95.4%.

On to `Cc1csc(C2CCN(C(=O)OC3C4CC5CC3CC(C(N)=O)(C5)C4)C2)n1` (single isomer, unassigned) [EXAMPLE 42 Isomer 2, cis-1-carbamoyl-4-adamantyl 3-(4-methylthiazol-2-yl)pyrrolidine-1-carboxylate], for which, under setting [1], the “Average % inhibition at 100 nM” value is recorded as 21.8%.

As for `Cn1ccc(-c2csc([C@H]3CCCN3C(=O)O[C@H]3C4CC5CC3C[C@](C(N)=O)(C5)C4)n2)cc1=O` [EXAMPLE 55, (R)-trans-1-carbamoyl-4-adamantyl 2-(4-(1-methyl-2-oxo-1,2-dihydropyridin-4-yl)thiazol-2-yl)pyrrolidine-1-carboxylate], the IC50 is < 100 nM under setting [2] and 2.07 nM under setting [3]. The inhibition at 0.1 µM (100 nM compound) worked out at 93.1%.

Take `Cn1ccc(-c2csc([C@H]3CCCN3C(=O)OC3C4CC5CC(C4)CC3C5)n2)cc1=O` (stereo partly drawn) [EXAMPLE 53, (R)-2-adamantyl 2-(4-(1-methyl-2-oxo-1,2-dihydropyridin-4-yl)thiazol-2-yl)pyrrolidine-1-carboxylate]: the IC50 is < 100 nM under setting [2] and 0.47 nM under setting [3]. Also, under “100 nM compound”, the inhibition at 0.1 µM was found to be 95.8%.

For the compound `NC(=O)C12CC3CC(C1)C(OC(=O)N1CCC(c4ncc(F)cn4)C1)C(C3)C2` (single isomer, unassigned) [EXAMPLE 41 Isomer 2, 1-carbamoyl-4-adamantyl 3-(5-fluoropyrimidin-2-yl)pyrrolidine-1-carboxylate], the “Average % inhibition at 100 nM” value under setting [1] is on record as 69.0%.

Take `O=C(OC1C2CC3CC1CC(O)(C3)C2)N1CCC(c2ncc(Cl)cn2)C1` (single isomer, unassigned) [EXAMPLE 24 Isomer 2, cis-1-hydroxy-4-adamantyl 3-(5-chloropyrimidin-2-yl)pyrrolidine-1-carboxylate]: the “Average % inhibition at 100 nM” value under setting [1] is 34.7%.

As for `CC(C)(O)CC1(c2ccccc2)CCN(C(=O)O[C@H]2C3CC4CC2C[C@](C(N)=O)(C4)C3)C1` (stereo partly drawn) [EXAMPLE 49, trans-1-carbamoyl-4-adamantyl 3-(2-hydroxy-2-methylpropyl)-3-phenylpyrrolidine-1-carboxylate], the IC50 under setting [2] was < 100 nM and the IC50 under setting [3] amounted to 2.07 nM. Moreover, the inhibition at 0.1 µM (100 nM compound) is 91.6%.

In the case of `COC(=O)COCC1(c2ccccc2)CCN(C(=O)OC2C3CC4CC(C3)CC2C4)CC1` (centres unmarked) [EXAMPLE 15, 2-adamantyl 4-((2-methoxy-2-oxoethoxy)methyl)-4-phenylpiperidine-1-carboxylate], the inhibition at 0.111 µM (Biological Test Example 1, 111 nM compound, read-out: Average % inhibition at 111 nM) was 80.6%. Besides, the IC50 under setting [2] was < 100 nM and the IC50 under setting [3] was 5.39 nM.

For `Cc1ccnc(C2CCN(C(=O)OC3C4CC5CC3CC(C(N)=O)(C5)C4)C2)n1` (single isomer, unassigned) [EXAMPLE 38 Isomer 2, 1-carbamoyl-4-adamantyl 3-(4-methylpyrimidin-2-yl)pyrrolidine-1-carboxylate], the “Average % inhibition at 100 nM” value under setting [1] is given as 10.7%. The IC50 is, setting by setting: under setting [2], > 100 nM; under setting [3], > 100 nM.

As to `O=C(O[C@H]1C2CC3CC1C[C@](O)(C3)C2)N1CC[C@@H](Oc2ccc(C(F)(F)F)cn2)C1` [EXAMPLE 4, (R)-(trans-(1-hydroxy-4-adamantyl)) 3-(5-(trifluoromethyl)pyridin-2-yloxy)pyrrolidine-1-carboxylate], the IC50 was < 100 nM under setting [2] and 2.63 nM under setting [3]. The inhibition at 0.1 µM (100 nM compound) came out at 90.3%.

As to `NC(=O)[C@]12CC3CC(C1)[C@@H](OC(=O)N1CC[C@H](Oc4ncc(F)cc4F)C1)C(C3)C2` [EXAMPLE 2, (S)-(trans-(1-carbamoyl-4-adamantyl)) 3-(3,5-difluoropyridin-2-yloxy)pyrrolidine-1-carboxylate], the IC50 was < 100 nM under setting [2] and 0.68 nM under setting [3]. In addition, where the note is “100 nM compound”, the inhibition at 0.1 µM was 96.2%.

Regarding `NC(=O)C12CC3CC(C1)C(OC(=O)N1CCC(c4nccc(C(F)(F)F)n4)C1)C(C3)C2` (single isomer, unassigned) [EXAMPLE 48 Isomer 1, trans-1-carbamoyl-4-adamantyl 3-(4-(trifluoromethyl)pyrimidin-2-yl)pyrrolidine-1-carboxylate], the “Average % inhibition at 100 nM” value under setting [1] is 94.5%.

Consider `O=C(OC1C2CC3CC1CC(C(=O)O)(C3)C2)N1CCC(c2ncc(Cl)cn2)C1` (single isomer, unassigned) [EXAMPLE 46 Isomer 2, cis-4-((3-(5-chloropyrimidin-2-yl)pyrrolidine-1-carbonyl)oxy)adamantane-1-carboxylic acid], for which the “Average % inhibition at 100 nM” value under setting [1] came to 3.8%. In addition, the IC50 under setting [2] is > 100 nM and the IC50 under setting [3] is > 100 nM.

On to `Cc1nc2cccc(Cl)c2n1[C@@H]1CCN(C(=O)OC2C3CC4CC2CC(C(N)=O)(C4)C3)C1` (stereo partly drawn) [EXAMPLE 59, (R)-1-carbamoyl-4-adamantyl 3-(7-chloro-2-methyl-1H-benzo[d]imidazol-1-yl)pyrrolidine-1-carboxylate], for which the IC50 runs as follows: under setting [2], < 100 nM; under setting [3], 1.92 nM. The inhibition at 0.1 µM (100 nM compound) turned out to be 96.7%.

With `NC(=O)[C@]12CC3CC(C1)[C@@H](OC(=O)N1CCC(c4ncc(Cl)cn4)C1)C(C3)C2` (single isomer, unassigned) [EXAMPLE 26 Isomer 1b, (1-carbamoyl-4-adamantyl) 3-(5-chloropyrimidin-2-yl)pyrrolidine-1-carboxylate], the “Average % inhibition at 100 nM” value under setting [1] came out at 84.2%. Further, the IC50 under setting [2] was < 100 nM and the IC50 under setting [3] turned out to be 1.91 nM.

The term IC50 denotes the concentration needed to halve the response being measured. A word on the inhibition: it is how much of the control response was suppressed.
